This is an account of results in patent US11001561B2, “Pyrimidinone derivatives as SHP2 antagonists” (MERCK PATENT GMBH, priority 2019, dated 2021).

“Also recorded” adds a separate entry of the source. Read-outs that look alike come from different tables or passages of the source. Some results are limits rather than exact numbers.

The subject of data set [1] is pERK1/2 in KYSE520 cells. Kind of data set: p-Erk cellular assay in KYSE520 (Mesoscale). It counts as cell-based. Conditions: read-out: pERK1/2 in Cell KYSE520 IC50. Here is the method: p-Erk Cellular Assay in KYSE520: The effect of SHP2 inhibitors on pERK level was assessed using phospho-specific antibody using Mesoscale quantification platform. For measuring change in pERK levels using mesoscale, 30,000 cells of KYSE520 cells were plated in 96-well tissue culture treated plate in 175 μl volume of media. After an overnight incubation at 37° C., various SHP2 inhibitors were added in different concentration to each well maintaining duplicate wells across plates and incubated with compounds for 2 h at 37° C. followed by a wash with ice cold PBS buffer. The cells were then lysed in lysis buffer and processed and analyzed for p-ERK/ERK as per manufacturer's instructions (Mesoscale discovery, cat No. […]-3).

For data set [2], the system named is MCP-1 production in U937 cells. Kind of data set: Cytokine release assay in U937 cells (MCP-1 AlphaLISA, IL-6 stimulation). It counts as cell-based. Conditions: Homo sapiens, U-937; U937 cells stimulated with IL-6 (50 ng/mL) overnight. Here is the method:
Selected compounds were tested in a cytokine release assay in monocytic cells (U937) to test their anti-inflammatory properties. Cells were plated in a 96-well cell culture plate using serum-free media. The cells were treated with indicated concentrations of SHP-2 inhibitors for 30 minutes followed by overnight stimulation with recombinant IL-6 (50 ng/mL). The MCP-1 production was measured in the culture supernatant using a MCP-1 AlphaLISA kit (Perkin Elmer).
In general terms: Alpha assays give light when donor and acceptor beads are brought close together.

The target in data set [3] is Full length SHP2 protein (Recombinant Human SHP-2) (Homo sapiens (Human), UniProt Q06124). As to the kind of experiment: SHP2 biochemical assay (DiFMUP substrate, activating peptide IRSI_2pY).
Full length SHP2 protein (Recombinant Human SHP-2), sequence (Q06124 2-593): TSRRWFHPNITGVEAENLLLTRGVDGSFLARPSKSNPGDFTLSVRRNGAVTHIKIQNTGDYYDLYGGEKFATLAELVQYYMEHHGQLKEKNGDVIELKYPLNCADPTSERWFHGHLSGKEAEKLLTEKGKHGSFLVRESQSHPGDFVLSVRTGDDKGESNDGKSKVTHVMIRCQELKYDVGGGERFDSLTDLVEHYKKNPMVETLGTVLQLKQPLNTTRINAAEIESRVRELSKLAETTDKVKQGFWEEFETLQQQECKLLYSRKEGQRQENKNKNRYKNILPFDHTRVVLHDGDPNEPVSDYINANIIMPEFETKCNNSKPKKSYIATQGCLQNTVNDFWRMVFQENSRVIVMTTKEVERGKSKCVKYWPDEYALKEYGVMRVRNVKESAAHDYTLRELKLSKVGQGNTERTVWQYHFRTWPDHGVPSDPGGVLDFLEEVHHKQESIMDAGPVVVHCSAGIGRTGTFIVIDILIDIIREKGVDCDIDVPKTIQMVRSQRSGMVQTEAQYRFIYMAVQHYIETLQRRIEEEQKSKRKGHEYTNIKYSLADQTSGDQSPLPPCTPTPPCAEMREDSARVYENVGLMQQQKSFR
Experimental: The inhibition of SHP2 by compounds of the invention was monitored using the surrogate substrate DiFMUP after protein activation by a peptide bearing two appropriately spaced phosphotyrosine. […] The generation of the DiFMU product by activated SHP2 was monitored through Fluorescence measurement with a PerkinElmer Envision reader. The inhibitor dose response curves were analyzed with Genedata Screener.
Data set [4] deals with Kyse-520 xenografts. As to the kind of experiment: Kyse-520 xenograft (EGFR amplified esophageal cancer). An excerpt:
H2D Rag2 mice were inoculated with 5 million KYSE-520 cells mixed with matrigel.
In vivo efficacy of compound 74a in an EGFR amplified setting was investigated in Kyse-520 xenografts. H2D Rag2 mice were inoculated with 5 million KYSE-520 cells mixed with matrigel.

A short description of data set [5]: Pharmacokinetics in mouse (oral / intravenous). It counts as in vivo. Conditions: female CD1 mice; for clearance / Vd: mouse, plasma, intravenous; for Vd: read-out: Vd ss. Here is the method: Female CD1 mice (N=3) received a single oral (gavage) or a single intravenous (bolus) injection of compound. […] Consecutive blood samples were taken sub-lingually under isofluorane inhalation from animals after 0.083 (IV), 0.25, 0.5, 1, 2, 4, 6 and 24 h and were further processed to obtain plasma. Samples were protein precipitated and analysed by LC/MS/MS.

Data set [6] has as its target Recombinant human SHP2 protein (2-593) (Homo sapiens (Human), UniProt Q06124). As to the kind of experiment: SPR binding assay. Here is the method:
The immobilization buffer contained 20 mM HEPES/NaOH (pH 7.4), 150 mM NaCl, 0.05% Tween 20. Inhibitors (stored as 10 mM stock solutions in 100% DMSO) were diluted in running buffer (20 mM HEPES/NaOH pH 7.4, 150 mM NaCl, 1 mM DTT, 5 mM MgCl2 0.1 mM EGTA, 0.05% Tween 20, 2% DMSO @25° C.) and analysed with a Biacore 4000 (Biacore AB, GE Healthcare Life Sciences, Uppsala, Sweden) using a 2-fold dilution series. The highest compound concentration varied according to the expected dissociation constant, but all compounds were tested at 10 different concentrations. Interaction analysis cycles were run at 30 μL/min and consisted of a 140 s sample injection followed by 600 s of buffer flow (dissociation phase). All sensograms were evaluated by first subtracting the binding response recorded from the control surface (reference spot), followed by subtracting a buffer blank injection. To determine kinetic rate constants, data sets were fitted to a simple 1:1 interaction model including a term for mass transport using numerical integration and nonlinear curve fitting. Equilibrium analysis was performed by fitting the response at the end of the association phase to a single-site binding isotherm.
On the technique in general: SPR reads the build-up and loss of mass on a sensor chip optically.

Data set [7] concerns the target Kv11.1 (hERG) ion channel (Homo sapiens (Human), UniProt Q12809). As to the kind of experiment: hERG patch clamp in Kv11.1 transfected HEK293 cells. It counts as cell-based. Here is the method: Inhibition of the ion channel hErg (or Kv11.1) current causes QT interval prolongation resulting in potentially fatal ventricular tachyarrhythmia called Torsade de Pointes.
hERG ion channel activity was assessed using a patch clamp technique in stable Kv11.1 (hERG) transfected human embryonic kidney cell line (HEK293). Whole cell recordings were carried out with an automated patch clamp device Patchliner™ from Nanion Technologies, Munich following manufacturer recommendation. Different concentrations of the test compound or reference, quinidine, were applied to whole cells suspension and current was measured using a pulse pattern with fixed amplitudes.
A general note: hERG is a cardiac potassium channel; its block is linked to QT prolongation.

Data set [8] has as its target auto-activated mutant protein SHP2 E76K (Homo sapiens (Human), UniProt Q06124, E76K). As to the kind of experiment: SHP2 active mutant E76K biochemical assay with and without activating peptide.
Experimental: The inhibition of SHP2 by compounds of the invention was monitored using the surrogate substrate DiFMUP after protein activation by a peptide bearing two appropriately spaced phosphotyrosine. Full length SHP2 protein (Recombinant HumanSHP-2, E. coli derived Ser2Arg593, N-terminal 6His tag from R&D systems; 0.0.24 nM) was incubated with activating peptide, IRSI_2pY (New England Peptide, 140 nM) and DiFMUP (molecular probes, 80 uM) at RT in buffer (HEPES pH 7.2 60 mM, DDT 5 mM, KCl 75 mM, NaCl 75 mM, EDTA 1 mM, Tween 20 0.05%) in presence of compound (10 concentrations range, top concentration 50 μM) for 60 min. The generation of the DiFMU product by activated SHP2 was monitored through Fluorescence measurement with a PerkinElmer Envision reader. The inhibitor dose response curves were analyzed with Genedata Screener.
Data set [9] relates to MiaPaCa-2 xenografts. It counts as in vivo, mouse. Conditions: H2D Rag2 mice, 50 or 100 mg/kg daily oral gavage. The source says:
H2D Rag2 mice were inoculated with 3 million MiaPaCa-2 cells.

Data set [10] concerns HPAF-2 xenografts. Conditions: CB17.SCID mice, 50 mg/kg 23B or 60 mg/kg RMC-4550 daily oral gavage.
Data set [11] concerns EBC-1 xenografts. As to the kind of experiment: EBC-1 xenograft (cMET amplified non-small cell lung cancer). It counts as in vivo. Conditions: CD-1 nude mice, 100 mg/kg daily oral gavage. The source says:
CD-1 nude mice were inoculated with 5 million EBC-1 cells.

For data set [12], the system named is U87-MG xenografts. As to the kind of experiment: U87-MG xenograft (PTEN LOF glioblastoma). In kind it is in vivo, mouse. The settings on record: CD-1 nude mice, 50 mg/kg daily oral gavage, FIG. 6. The source says: CD-1 nude mice were inoculated with 10 million U87-MG cells.
Where [13] appears, read: SHP-2 biochemical assay IC50 (μM), activating peptide IRSI_2pY 140 nM, DiFMUP, 60 min.
Where [14] appears, read: SHP-2 E76Z IC50 (nM) No peptide, without activating peptide.
[15] abbreviates: SHP-2 IC50 (nM) peptide, wild-type SHP-2, with activating peptide.

Recombinant human SHP2 protein (2-593), sequence (Q06124 2-593): as above
auto-activated mutant protein SHP2 E76K, sequence (Q06124 whole entry E76K): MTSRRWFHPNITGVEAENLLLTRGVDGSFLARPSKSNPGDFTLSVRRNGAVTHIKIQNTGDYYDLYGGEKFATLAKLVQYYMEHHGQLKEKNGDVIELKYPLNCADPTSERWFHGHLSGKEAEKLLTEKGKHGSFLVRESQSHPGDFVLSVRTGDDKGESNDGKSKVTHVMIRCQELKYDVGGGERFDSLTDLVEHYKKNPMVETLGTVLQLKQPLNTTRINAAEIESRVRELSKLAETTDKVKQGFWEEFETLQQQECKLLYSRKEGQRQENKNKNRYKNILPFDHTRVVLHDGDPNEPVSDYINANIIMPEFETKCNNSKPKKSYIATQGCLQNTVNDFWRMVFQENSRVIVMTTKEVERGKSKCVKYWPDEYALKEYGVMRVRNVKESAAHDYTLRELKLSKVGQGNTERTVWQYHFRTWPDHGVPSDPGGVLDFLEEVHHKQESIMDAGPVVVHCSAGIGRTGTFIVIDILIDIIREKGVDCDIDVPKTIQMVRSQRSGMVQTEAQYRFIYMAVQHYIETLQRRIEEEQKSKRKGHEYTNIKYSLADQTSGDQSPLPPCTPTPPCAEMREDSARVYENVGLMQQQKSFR
Kv11.1 (hERG) ion channel, sequence (Q12809 whole entry): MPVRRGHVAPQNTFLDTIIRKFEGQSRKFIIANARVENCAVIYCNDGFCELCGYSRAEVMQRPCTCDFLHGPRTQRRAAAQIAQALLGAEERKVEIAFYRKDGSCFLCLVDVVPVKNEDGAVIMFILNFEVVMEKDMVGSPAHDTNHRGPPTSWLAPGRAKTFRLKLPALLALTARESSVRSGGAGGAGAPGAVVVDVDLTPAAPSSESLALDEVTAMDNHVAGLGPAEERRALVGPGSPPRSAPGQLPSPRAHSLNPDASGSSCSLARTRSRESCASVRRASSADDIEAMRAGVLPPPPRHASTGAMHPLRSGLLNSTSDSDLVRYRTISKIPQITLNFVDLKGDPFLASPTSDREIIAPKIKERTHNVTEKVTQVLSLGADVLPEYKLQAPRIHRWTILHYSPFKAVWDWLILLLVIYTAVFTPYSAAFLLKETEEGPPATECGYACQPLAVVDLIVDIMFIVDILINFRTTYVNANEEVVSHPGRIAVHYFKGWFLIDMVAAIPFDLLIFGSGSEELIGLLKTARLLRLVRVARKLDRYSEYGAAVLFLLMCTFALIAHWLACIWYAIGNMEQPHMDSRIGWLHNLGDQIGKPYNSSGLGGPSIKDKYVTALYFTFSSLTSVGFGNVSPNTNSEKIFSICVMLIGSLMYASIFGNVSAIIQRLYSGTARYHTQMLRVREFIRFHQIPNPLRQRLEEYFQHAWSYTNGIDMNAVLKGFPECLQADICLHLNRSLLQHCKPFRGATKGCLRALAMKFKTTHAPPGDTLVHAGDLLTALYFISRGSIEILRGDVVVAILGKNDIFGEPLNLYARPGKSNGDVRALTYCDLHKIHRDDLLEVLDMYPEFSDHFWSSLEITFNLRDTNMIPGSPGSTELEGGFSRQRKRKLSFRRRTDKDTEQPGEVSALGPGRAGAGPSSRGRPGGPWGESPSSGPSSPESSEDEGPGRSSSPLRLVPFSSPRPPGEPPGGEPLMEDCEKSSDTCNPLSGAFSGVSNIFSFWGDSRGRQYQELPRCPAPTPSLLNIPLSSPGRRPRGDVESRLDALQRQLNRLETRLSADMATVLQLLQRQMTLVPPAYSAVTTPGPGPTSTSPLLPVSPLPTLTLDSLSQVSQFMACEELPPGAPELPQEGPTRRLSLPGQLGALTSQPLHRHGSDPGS

Consider `Cc1c(N2CCC3(CC2)C[C@@H](C)C[C@H]3N)nc(C)n(-c2cccc(Cl)c2Cl)c1=O` [Compound 77, (3M)-6-[(1R,3R)-1-amino-3-methyl-8-azaspiro[4.5]decan-8-yl]-3-(2,3-dichlorophenyl)-2,5-dimethyl-3,4-dihydropyrimidin-4-one], for which the IC50 in data set [1] (Homo sapiens, KYSE-520, 2 h) came out at 74 nM; in data set [2] it was 731 nM; in data set [3] (setting [13]), 0.006 µM.
By koff is commonly meant the rate constant with which the complex falls apart. As a reminder, the residence time is how long the partners stay bound on average. By Ki is commonly meant the dissociation constant of the complex between target and ligand, obtained from inhibition or displacement. Consider `Cc1c(N2CCC3(CC2)Cc2ccccc2[C@H]3N)nc(C)n(-c2cccc(Cl)c2Cl)c1=O` [Compound 74a, (3M)-6-[(1S)-1-amino-1,3-dihydrospiro[indene-2,4′-piperidin]-1′-yl]-3-(2,3-dichlorophenyl)-2,5-dimethyl-3,4-dihydropyrimidin-4-one], for which the IC50 in data set [1] (2 h) stood at 2 nM. The tolerability result in [4] (H2D Rag2 mice, 0.8, 2.5 or 8 mg/kg daily oral gavage) is listed as “All doses were well tolerated”. In data set [5], the Fz stood at 100%, the clearance is 8.33 mL/min/kg and the Vd stood at 5.1 L/kg. Also, in data set [6] (SPR, 25° C.), the koff was under 0.0001 s⁻¹ and the residence time was over 160 min. In addition, in [7], the Ki is 1200 nM; the “Split between hErg and cell activity Ki (patch Clamp)/IC50 (KYSE)” value was 704.
As for `Cc1c(N2CCC3(CC2)Cc2ncccc2[C@H]3N)nc(C)n(-c2cccc(Cl)c2Cl)c1=O` (single isomer, unassigned) [Compound 66b], the IC50 worked out at 5 nM in [1] (Homo sapiens, KYSE-520, 2 h); 1.9 nM in data set [8] (setting [14]); 1.9 nM in data set [8] (SHP-2 E76Z IC50 (nM) peptide, with activating peptide IRSI_2pY 140 nM); 0.0007 µM in [3] (setting [15]); 0.001 µM in [3] (setting [13]). In addition, the Fz in [5] was found to be 100%. The compound further showed a clearance in [5] of 8.33 mL/min/kg. The Vd in [5] stood at 1.96 L/kg. Besides, the Ki in data set [7] was 7500 nM. Further, the “Split between hErg and cell activity Ki (patch Clamp)/IC50 (KYSE)” value in data set [7] (human) was 580.
The Kd is the constant that tells how readily two partners part at equilibrium. `Cc1c(N2CCC3(CC2)CO[C@@H](C)[C@H]3N)nc(C)n(-c2cccc(Cl)c2Cl)c1=O` (single isomer, unassigned) [Compound 23b]: the tolerability entry was “All doses were well tolerated” in [9]; “All doses were well tolerated” in data set [10]; “All doses were well tolerated” in [4] (H2D Rag2 mice, 10, 30 or 100 mg/kg daily oral gavage); “All doses were well tolerated” in [11]. In addition, the IC50 in data set [1] (Homo sapiens, KYSE-520, 2 h) was determined as 94 nM; in [8] (setting [14]), 21 nM; in data set [8] (with activating peptide IRSI_2pY 140 nM, read-out: SHP-2 E76Z IC50 (nM) peptide), 12 nM; in [3] (setting [15]), 0.012 µM; in data set [3] (setting [13]) it was 0.009 µM. Also, in [10] (FIG. 5), the tumor inhibition entry is listed as “Significant tumor inhibition”. Besides, the tumor growth inhibition entry is “multiple dosage levels reduce growth of the tumor a significant amount; also recorded: dose-dependent significant tumor growth inhibition” in data set [4] (H2D Rag2 mice, 10, 30 or 100 mg/kg daily oral gavage, FIG. 2) and “reduces tumor growth; also recorded: Significant tumor growth inhibition” in [11] (FIG. 7). This compound also displayed a Fz in data set [5] of 100%. The clearance in data set [5] is 15.5 mL/min/kg. Also, the Vd in [5] was 4.64 L/kg. Moreover, the “tumor growth / regression” value in data set [12] is given as “reduces tumor size as compared to baseline; also recorded: Tumor regression”. For the same compound, the Kd in [6] stood at 7.14 nM. For the same compound, in data set [7], the Ki is over 10000 nM.
